Earlier results as cited in patent publication US20210316006A1, “PYRROLOBENZODIAZEPINE CONJUGATES” (priority 2018, published 2021).

Key:
[1] = quoted from Mantaj et al. 2016
[2] = in vitro; quoted from Gregson et al. 1999

Compound	activity in vivo [1]	cytotoxic potency relative to DSB-120 [2] [fold]
COc1cc2c(cc1OCCCOc1cc3c(cc1OC)C(=O)N1CCC[C@H]1C=N3)N=C[C@@H]1CCCN1C2=O [DSB-120]	poor activity in vivo	
C=C1C[C@H]2C=Nc3cc(OCCCOc4cc5c(cc4OC)C(=O)N4CC(=C)C[C@H]4C=N5)c(OC)cc3C(=O)N2C1 [SG2000]		~9000
